According to PMC7529893, “Structural basis for substrate recognition and chemical inhibition of oncogenic MAGE ubiquitin ligases” (Nature Communications, 2020):
Converted amounts (≈) assume the structure as drawn. “Also recorded” adds a separate entry of the source.

Key:
[1] = tested on: MAGE-A11-knockout DAOY cells or those reconstituted with MAGE-A11; experiment: Cell viability, alamarBlue, DAOY cells; type: cell-based
Method: (§1) To assess cell viability after SJ521054 treatment, 1 × 10^4 cells/ml were treated with SJ521054 (0–40 μM) and incubated for 24 h prior to changing the media and adding alamarBlue (Thermo Fisher Scientific) and incubating for 4 h at 37 °C. Plates were read by measuring the fluorescence with excitation wavelength at 540 nm and emission wavelength at 590 nm on an Enspire plate reader.

[2] = tested on: HEK293FT cells stably expressing FLAG-vector or FLAG-MAGE-A11; experiment: Cell viability, alamarBlue, HEK293FT cells; type: cell-based; details: HEK293FT FLAG-MAGE-A11 against FLAG-vector, 24 h; listed as SJ521054
Method: as §1

MAGE-F1:MMS19 = target: T1, MAGE-F1:MMS19 (Homo sapiens, UniProt Q9HAY2); experiment: Co-IP of MAGE-F1 with MMS19 in cell lysate; type: binding; details: 100 µM, 24 h
T1 construct: expressed in transfected cells
T1 sequence (Q9HAY2 1-307): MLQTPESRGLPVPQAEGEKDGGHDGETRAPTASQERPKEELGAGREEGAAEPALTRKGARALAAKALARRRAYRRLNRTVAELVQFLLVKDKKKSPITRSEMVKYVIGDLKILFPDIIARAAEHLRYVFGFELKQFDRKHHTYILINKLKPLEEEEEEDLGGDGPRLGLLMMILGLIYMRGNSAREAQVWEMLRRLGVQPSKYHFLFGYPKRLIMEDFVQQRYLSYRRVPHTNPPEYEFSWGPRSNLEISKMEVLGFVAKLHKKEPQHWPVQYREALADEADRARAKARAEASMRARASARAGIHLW
Method: HEK293FT cells were plated in 6 cm^2 plates and transfected 24 h later with Effectene (QIAGEN) according to the manufacturer’s protocol. After 48 h, cells were washed and scraped in cold PBS, spun down, and resuspended in lysis buffer (50 mM Tris pH 7.4, 150 mM NaCl, 1 mM DTT, 0.1% (v/v) Triton X-100, 10 mM N-Ethylmaleimide, and 1X protease inhibitor cocktail (Sigma)). Cell lysates were incubated with appropriate antibodies overnight at 4 °C and then with protein A beads for 2 h at 4 °C. Beads were then washed with lysis buffer three times and eluted with 2X SDS sample buffer.
For western blotting, samples in SDS sample buffer were resolved on SDS-PAGE gels and then transferred to nitrocellulose membranes prior to blocking in TBST with 5% (w/v) milk powder or 3% (w/v) bovine serum albumin and probing with primary and secondary antibodies (GE Healthcare). Primary antibodies were: anti-Myc (Sigma, #C3956), anti-FLAG (Sigma, #F3165), anti-HUWE1 (Novus Biologicals, #NB 100-652), anti-PCF11 (Bethyl Laboratories, #A303-706A), anti-GAPDH (Cell Signaling Technology, #2118), anti-TRIM28 (Abcam, #ab22553), anti-AMPKα1 (Cell Signaling Technology, #2795), and anti-MMS19 (Proteintech, #16015-1-AP) and Tb-anti-GST (Invitrogen, #PV3551). Secondary antibodies were: Donkey Anti-Rabbit IgG (GE Healthcare, NA934V) and Sheep Anti-Mouse IgG (GE Healthcare, NA931V). […]

[3] = Solubility assay (μSOL Evolution); type: physicochemical; details: citrate phosphate-buffered saline (isotonic) with 1% DMSO; 18 h at RT
Method: Solubility assays were carried out on a Biomek FX lab automation workstation (Beckman Coulter, Inc., Fullerton, CA) using μSOL Evolution software (pION Inc., Woburn, MA). The detailed method is described as follows. 10 µl of 10 mM compound stock (in DMSO) was added to 190 μl 1-propanol to make a reference stock plate. In total, 5 µl from this reference stock plate were mixed with 70 µl 1-propanol and 75 µl citrate phosphate-buffered saline (PBS; isotonic) to make the reference plate, and the UV spectrum (250–500 nm) of the reference plate was read. In total, 6 µl of 10 mM test compound stock was added to 594 µl buffer in a 96-well storage plate and mixed. The storage plate was sealed and incubated at RT for 18 h. The suspension was then filtered through a 96-well filter plate (pION Inc., Woburn, MA). In all, 75 µl of filtrate was mixed with 75 µl 1-propanol to make the sample plate, and the UV spectrum of the sample plate was read. Calculations were carried out with μSOL Evolution software based on the area under the curve (AUC) of the UV spectrum of the sample and reference plates. All compounds were tested in triplicate.

[4] = High throughput Caco-2 permeability; type: in vitro ADME; details: human, Caco-2, pH 7.4, 10 µmol/l, 2 h; for Papp A→B at 2 h, 10 µmol/l: apical to basolateral; for Papp B→A at 2 h, 10 µmol/l: basolateral to apical
Method: (§2) High throughput Caco-2 permeability was performed in the TranswellR 0.4 µm polycarbonate membrane 96-well system with modified methods. Caco-2 cells were maintained at 37 °C in a humidified incubator with an atmosphere of 5% CO2. The cells were cultured in 75 cm^2 flasks with Dulbecco’s Modified Eagle’s Medium (DMEM) containing 10% (v/v) FBS, 1% (v/v) non-essential amino acids (NEAA), 100 units/ml of penicillin, and 100 µg/ml of streptomycin. The Caco-2 cells were seeded onto inserts at a density of 2 × 10^4 cells/insert separately. The medium in the wells was exchanged each other day, and the trans epithelial electrical resistance (TEER) value was measured using an epithelial voltohm meter (Millipore, Billerica, Massachusetts). […] For transport experiments, each cultured monolayer on the 96-well plate was washed twice with a transport buffer (HBSS containing 25 mM HEPES, pH 7.4). The permeability assay was initiated by the addition of each compound solution (10 µmol/l) into inserts (apical side, A) or receivers (basolateral side, B). The Caco-2 cell monolayers were incubated for 2 h at 37 °C. Fractions were collected from receivers (if apical to basal permeability) or inserts (if basal to apical permeability), and concentrations were assessed by UPLC/MS (Waters; Milford, MA). All compounds were tested in triplicates. The A → B (or B → A) apparent permeability coefficients (Papp) of each compound were calculated using the equation, Papp = dQ/dt × 1/AC0, where dQ/dt equals the flux of a drug across the monolayer, A equals the total insert well surface area, and C0 is the initial concentration of substrate in the donor compartment. The efflux ratio was determined by dividing the Papp in the B-A direction by the Papp in the A-B direction.

Caco-2 cells = experiment: High throughput Caco-2 permeability; type: in vitro ADME
Method: as §2

Structure (SMILES)	cell viability ([1]; DAOY cells with MAGE-A11 against vector control, 0–40 μM, 24 h, listed as SJ521054)	cytotoxicity independent of MAGE-A11 ([1]; higher concentrations, both cell lines (DAOY and HEK293))	cell viability [2]	interaction of MAGE-F1 with MMS19 in cell lysate (MAGE-F1:MMS19; listed as SJ521054)	solubility at 18 h [3] [µM]	Papp A→B at 2 h, 10 µmol/l [4] [×10⁻⁶ cm/s]	Papp B→A at 2 h, 10 µmol/l [4] [×10⁻⁶ cm/s]	interaction of MAGE-F1 with MMS19 in cell lysate (MAGE-F1:MMS19; listed as SJ1008066)	cell permeability in words (Caco-2 cells)
FC(F)(F)c1ccc2c(NCCCNCc3ccc4[nH]ccc4c3)ccnc2c1 [SJ000521054-02]	reduces viability of MAGE-A11 expressing DAOY cancer cells; also recorded: decreased the viability of MAGE-A11 expressing DAOY and HEK293FT cells to a much greater extent than vector control MAGE-A11-negative cells	shows cytotoxicity to both cell lines	reduces viability of; also recorded: decreased the viability of MAGE-A11 expressing DAOY and HEK293FT cells to a much greater extent than vector control MAGE-A11-negative cells	do not disrupt interaction; also recorded: did not disrupt interaction	26.5 (≈ 10.6 µg/mL)	11.5	14.2	–	–
c1ccc2c(NCCCNCc3ccc4[nH]ccc4c3)ccnc2c1 [SJ001008066-01]	–	–	–	–	37.8 (≈ 12.5 µg/mL)	8.17	8.09	do not disrupt interaction; also recorded: did not disrupt interaction	cell permeable
